# Measured values reported in ChEMBL document CHEMBL5678807, “A selective jumonji H3K27 demethylase inhibitor modulates the proinflammatory macrophage response” (Nature, 2012).
# How the values were obtained:
# [1] = biological target: Acetylcholine receptor subunit alpha (Homo sapiens, UniProt P02708); test: Antagonist activity at human alpha 1 nAChR by intracellular Ca fluorescence assay; assay type: cell-based
# [2] = biological target: T1, Kappa-type opioid receptor (Homo sapiens, UniProt P41145); test: Antagonist activity at human OPRK-1 by SPA; assay type: functional
# T1 sequence (P41145 whole entry): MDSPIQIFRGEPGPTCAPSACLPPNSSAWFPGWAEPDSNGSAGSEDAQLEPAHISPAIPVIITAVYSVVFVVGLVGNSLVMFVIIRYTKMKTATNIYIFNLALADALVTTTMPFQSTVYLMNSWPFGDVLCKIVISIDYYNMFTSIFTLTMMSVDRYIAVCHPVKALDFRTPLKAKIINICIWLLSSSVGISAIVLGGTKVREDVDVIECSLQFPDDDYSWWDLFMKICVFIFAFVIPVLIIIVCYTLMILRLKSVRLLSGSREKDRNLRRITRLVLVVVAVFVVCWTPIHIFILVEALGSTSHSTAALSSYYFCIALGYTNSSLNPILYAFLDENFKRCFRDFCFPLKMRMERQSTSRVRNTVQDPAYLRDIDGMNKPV
# [3] = biological target: T2, 5-hydroxytryptamine receptor 2C (Homo sapiens, UniProt P28335); test: Antagonist activity at human 5-HT2C by intracellular Ca luminescence assay; assay type: functional, cell-based
# T2 sequence (P28335 whole entry): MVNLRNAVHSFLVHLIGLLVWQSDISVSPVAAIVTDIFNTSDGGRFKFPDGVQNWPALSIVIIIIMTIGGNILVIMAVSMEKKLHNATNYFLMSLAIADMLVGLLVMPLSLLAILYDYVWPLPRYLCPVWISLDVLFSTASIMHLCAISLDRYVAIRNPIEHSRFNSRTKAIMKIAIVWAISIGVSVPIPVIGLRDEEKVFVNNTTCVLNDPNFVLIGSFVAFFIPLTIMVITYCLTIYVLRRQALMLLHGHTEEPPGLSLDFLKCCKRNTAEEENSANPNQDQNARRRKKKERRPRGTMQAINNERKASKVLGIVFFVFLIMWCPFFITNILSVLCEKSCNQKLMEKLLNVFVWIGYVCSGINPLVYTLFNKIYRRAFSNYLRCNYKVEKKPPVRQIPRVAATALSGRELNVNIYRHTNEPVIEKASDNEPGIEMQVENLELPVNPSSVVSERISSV
# [4] = biological target: Sodium-dependent noradrenaline transporter (Homo sapiens, UniProt P23975); test: Binding affinity to human NET by SPA
# Chain of Sodium-dependent noradrenaline transporter (P23975 whole entry): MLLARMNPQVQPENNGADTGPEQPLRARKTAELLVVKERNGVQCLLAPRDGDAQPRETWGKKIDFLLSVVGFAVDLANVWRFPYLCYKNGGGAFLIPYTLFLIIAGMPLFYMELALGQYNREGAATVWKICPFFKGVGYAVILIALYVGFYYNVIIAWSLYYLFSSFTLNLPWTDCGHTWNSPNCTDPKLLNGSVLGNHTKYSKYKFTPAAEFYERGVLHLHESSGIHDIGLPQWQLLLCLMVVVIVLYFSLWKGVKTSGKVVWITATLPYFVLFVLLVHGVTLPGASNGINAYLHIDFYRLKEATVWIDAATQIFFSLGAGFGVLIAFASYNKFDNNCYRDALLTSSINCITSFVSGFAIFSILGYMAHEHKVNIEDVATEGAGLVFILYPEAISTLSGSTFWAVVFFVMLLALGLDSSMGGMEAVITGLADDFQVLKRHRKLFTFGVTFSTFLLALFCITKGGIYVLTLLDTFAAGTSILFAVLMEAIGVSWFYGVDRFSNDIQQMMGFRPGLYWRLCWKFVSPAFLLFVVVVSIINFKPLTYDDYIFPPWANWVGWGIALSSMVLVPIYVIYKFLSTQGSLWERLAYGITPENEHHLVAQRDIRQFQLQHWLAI
# [5] = biological target: Amine oxidase [flavin-containing] A (Homo sapiens, UniProt P21397); test: Inhibition of human MAOA by FLINT assay
# Chain of Amine oxidase [flavin-containing] A (P21397 whole entry): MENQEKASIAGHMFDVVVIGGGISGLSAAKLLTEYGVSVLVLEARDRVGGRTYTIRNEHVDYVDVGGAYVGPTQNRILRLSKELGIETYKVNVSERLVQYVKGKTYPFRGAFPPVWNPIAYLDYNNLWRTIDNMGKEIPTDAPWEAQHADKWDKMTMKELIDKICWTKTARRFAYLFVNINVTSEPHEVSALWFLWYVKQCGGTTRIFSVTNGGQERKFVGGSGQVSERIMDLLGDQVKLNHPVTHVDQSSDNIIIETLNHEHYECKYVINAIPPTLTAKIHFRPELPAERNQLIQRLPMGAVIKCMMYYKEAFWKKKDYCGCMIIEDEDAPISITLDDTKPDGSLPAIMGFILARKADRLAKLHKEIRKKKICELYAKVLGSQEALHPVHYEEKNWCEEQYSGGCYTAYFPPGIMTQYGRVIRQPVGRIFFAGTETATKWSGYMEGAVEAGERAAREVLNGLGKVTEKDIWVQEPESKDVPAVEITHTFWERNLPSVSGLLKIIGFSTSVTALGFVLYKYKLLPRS
# [6] = biological target: Mu-type opioid receptor (Homo sapiens, UniProt P35372); test: Antagonist activity at human OPRM-1 by SPA; assay type: functional
# [7] = biological target: Voltage-gated potassium channel, IKs; KCNQ1(Kv7.1)/KCNE1(MinK) (Homo sapiens, UniProt P51787+P15382); test: Blockade of human KCNQ1/KCNE1 by electrophysiology assay; assay type: protein-complex assay
# Chain of Voltage-gated potassium channel, IKs; KCNQ1(Kv7.1)/KCNE1(MinK) (P51787 whole entry): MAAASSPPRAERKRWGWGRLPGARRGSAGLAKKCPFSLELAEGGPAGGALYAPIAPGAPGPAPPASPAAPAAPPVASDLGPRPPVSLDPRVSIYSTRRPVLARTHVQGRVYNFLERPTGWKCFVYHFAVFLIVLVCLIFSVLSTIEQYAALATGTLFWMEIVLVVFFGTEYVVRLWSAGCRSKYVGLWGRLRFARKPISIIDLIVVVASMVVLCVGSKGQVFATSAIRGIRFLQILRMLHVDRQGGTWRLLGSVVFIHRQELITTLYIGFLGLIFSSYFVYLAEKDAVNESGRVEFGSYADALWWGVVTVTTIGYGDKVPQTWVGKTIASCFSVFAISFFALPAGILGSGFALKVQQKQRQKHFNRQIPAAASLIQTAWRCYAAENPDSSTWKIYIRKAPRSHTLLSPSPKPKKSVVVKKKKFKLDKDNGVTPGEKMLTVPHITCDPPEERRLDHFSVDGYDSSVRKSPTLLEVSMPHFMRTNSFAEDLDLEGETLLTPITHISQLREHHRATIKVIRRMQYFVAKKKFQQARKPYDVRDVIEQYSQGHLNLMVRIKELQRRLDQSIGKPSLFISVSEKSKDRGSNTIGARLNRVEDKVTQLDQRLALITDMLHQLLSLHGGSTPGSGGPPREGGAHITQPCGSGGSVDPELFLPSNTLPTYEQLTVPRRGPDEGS
# [8] = biological target: Cannabinoid receptor 2 (Homo sapiens, UniProt P34972); test: Agonist activity at human cannabinoid CB2 receptor by Yeast FDGlu assay; assay type: functional
# Chain of Cannabinoid receptor 2 (P34972 whole entry): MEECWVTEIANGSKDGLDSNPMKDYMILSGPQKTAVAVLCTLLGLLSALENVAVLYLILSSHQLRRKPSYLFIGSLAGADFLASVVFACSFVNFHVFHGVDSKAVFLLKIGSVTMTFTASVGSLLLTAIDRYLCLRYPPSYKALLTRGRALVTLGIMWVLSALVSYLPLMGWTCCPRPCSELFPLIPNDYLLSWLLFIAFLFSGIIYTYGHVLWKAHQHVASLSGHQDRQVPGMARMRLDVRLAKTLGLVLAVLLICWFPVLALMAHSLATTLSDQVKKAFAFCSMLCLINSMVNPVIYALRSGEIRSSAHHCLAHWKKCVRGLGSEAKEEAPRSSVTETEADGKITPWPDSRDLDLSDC
# [9] = biological target: Sodium channel protein type 5 subunit alpha (Homo sapiens, UniProt Q14524); test: Blockade of human NaV1.5 by electrophysiology assay
# [10] = biological target: Histone deacetylase 4 (Homo sapiens, UniProt P56524); test: Inhibition of human HDAC4 by FLINT assay
# [11] = biological target: Potassium voltage-gated channel subfamily A member 5 (Homo sapiens, UniProt P22460); test: Blockade of human Kv1.5 by electrophysiology assay
# Chain of Potassium voltage-gated channel subfamily A member 5 (P22460 whole entry): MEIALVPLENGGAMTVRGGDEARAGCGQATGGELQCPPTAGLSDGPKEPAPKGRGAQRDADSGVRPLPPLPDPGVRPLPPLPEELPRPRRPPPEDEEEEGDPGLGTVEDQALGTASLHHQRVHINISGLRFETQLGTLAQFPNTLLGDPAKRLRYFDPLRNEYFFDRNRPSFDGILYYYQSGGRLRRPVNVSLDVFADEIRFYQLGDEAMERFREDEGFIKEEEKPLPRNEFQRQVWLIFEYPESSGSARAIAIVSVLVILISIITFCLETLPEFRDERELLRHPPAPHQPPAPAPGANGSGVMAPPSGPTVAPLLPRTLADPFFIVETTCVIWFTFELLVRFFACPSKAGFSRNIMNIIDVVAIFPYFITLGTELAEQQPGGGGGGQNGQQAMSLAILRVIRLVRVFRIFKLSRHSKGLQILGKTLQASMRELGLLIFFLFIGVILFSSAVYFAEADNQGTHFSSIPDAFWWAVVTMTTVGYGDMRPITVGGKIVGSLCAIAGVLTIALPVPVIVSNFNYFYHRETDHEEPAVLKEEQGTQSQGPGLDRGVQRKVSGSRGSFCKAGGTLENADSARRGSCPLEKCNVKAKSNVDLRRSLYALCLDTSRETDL
# [12] = biological target: 5-hydroxytryptamine receptor 2A (Homo sapiens, UniProt P28223); test: Agonist activity at human 5-HT2A by intracellular Ca luminescence assay; assay type: functional, cell-based
# Chain of 5-hydroxytryptamine receptor 2A (P28223 whole entry): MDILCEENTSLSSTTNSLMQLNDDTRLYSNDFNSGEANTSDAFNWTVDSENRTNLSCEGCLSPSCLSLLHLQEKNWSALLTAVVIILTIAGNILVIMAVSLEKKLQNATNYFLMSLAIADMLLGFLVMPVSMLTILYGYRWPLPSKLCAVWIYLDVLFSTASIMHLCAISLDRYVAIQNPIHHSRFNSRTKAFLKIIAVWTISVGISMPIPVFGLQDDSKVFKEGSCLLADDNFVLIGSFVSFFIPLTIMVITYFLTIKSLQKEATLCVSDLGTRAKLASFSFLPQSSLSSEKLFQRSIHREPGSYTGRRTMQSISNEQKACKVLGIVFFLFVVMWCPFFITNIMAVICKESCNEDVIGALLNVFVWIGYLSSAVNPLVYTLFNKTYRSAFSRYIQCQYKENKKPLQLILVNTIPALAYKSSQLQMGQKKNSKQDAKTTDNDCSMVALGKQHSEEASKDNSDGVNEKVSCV
# [13] = biological target: T1, Kappa-type opioid receptor; test: Agonist activity at human OPRK-1 by SPA; assay type: functional
# [14] = biological target: Vasopressin V1a receptor (Homo sapiens, UniProt P37288); test: Antagonist activity at human vasopressin V1a by intracellular Ca luminescence assay; assay type: functional, cell-based
# Chain of Vasopressin V1a receptor (P37288 whole entry): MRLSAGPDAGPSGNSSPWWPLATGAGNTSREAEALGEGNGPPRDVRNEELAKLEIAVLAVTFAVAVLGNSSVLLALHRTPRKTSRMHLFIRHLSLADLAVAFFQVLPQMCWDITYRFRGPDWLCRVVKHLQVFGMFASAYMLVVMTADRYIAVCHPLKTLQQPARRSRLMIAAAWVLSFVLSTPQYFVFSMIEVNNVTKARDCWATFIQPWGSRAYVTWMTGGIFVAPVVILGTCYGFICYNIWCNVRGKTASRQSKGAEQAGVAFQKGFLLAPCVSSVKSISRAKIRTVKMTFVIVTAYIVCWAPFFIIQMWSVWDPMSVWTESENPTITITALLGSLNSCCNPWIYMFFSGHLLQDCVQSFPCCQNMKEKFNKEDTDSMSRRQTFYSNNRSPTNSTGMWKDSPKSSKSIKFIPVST
# [15] = biological target: Histone deacetylase 5 (Homo sapiens, UniProt Q9UQL6); test: Inhibition of human HDAC5 by FLINT assay
# [16] = biological target: D(2) dopamine receptor (Homo sapiens, UniProt P14416); test: Antagonist activity at human dopamine 2 receptor by SPA; assay type: functional
# Chain of D(2) dopamine receptor (P14416 whole entry): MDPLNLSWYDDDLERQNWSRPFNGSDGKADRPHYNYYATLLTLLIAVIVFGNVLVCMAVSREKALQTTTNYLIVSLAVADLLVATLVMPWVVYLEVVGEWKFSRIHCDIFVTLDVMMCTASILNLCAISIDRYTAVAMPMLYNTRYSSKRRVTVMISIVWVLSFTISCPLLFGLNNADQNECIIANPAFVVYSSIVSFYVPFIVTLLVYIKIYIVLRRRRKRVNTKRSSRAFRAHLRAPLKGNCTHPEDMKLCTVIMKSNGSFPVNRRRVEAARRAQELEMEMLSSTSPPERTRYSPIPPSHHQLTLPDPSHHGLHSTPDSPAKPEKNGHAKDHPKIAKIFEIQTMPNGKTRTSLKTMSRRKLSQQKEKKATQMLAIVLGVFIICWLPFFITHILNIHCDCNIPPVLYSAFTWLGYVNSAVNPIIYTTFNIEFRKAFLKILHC
# [17] = test system: Macrophage; test: Antiinflammatory activity in human primary macrophages assessed as effect on LPS-induced GAPDH gene expression at 30 uM measured after 2 hrs by RT-PCR array (reference value: 1352294 a.u.); assay type: functional
# [18] = test system: Macrophage; test: Antiinflammatory activity in human primary macrophages assessed as effect on LPS-induced NODAL gene expression at 30 uM measured after 2 hrs by RT-PCR array (reference value: 125 a.u.); assay type: functional
# [19] = test system: Macrophage; test: Antiinflammatory activity in human primary macrophages assessed as effect on LPS-induced TNFSF13 gene expression at 30 uM measured after 2 hrs by RT-PCR array (reference value: 47108 a.u.); assay type: functional
# [20] = test system: Macrophage; test: Antiinflammatory activity in human primary macrophages assessed as effect on LPS-induced IL12A gene expression at 30 uM measured after 2 hrs by RT-PCR array (reference value: 7097 a.u.); assay type: functional
# [21] = test system: Macrophage; test: Antiinflammatory activity in human primary macrophages assessed as effect on LPS-induced TNFSF8 gene expression at 30 uM measured after 2 hrs by RT-PCR array (reference value: 248127 a.u.); assay type: functional
# [22] = test system: Macrophage; test: Antiinflammatory activity in human primary macrophages assessed as effect on LPS-induced TNFSF13B gene expression at 30 uM measured after 2 hrs by RT-PCR array (reference value: 28045 a.u.); assay type: functional
# [23] = test system: Macrophage; test: Antiinflammatory activity in human primary macrophages assessed as effect on LPS-induced LTA gene expression at 30 uM measured after 2 hrs by RT-PCR array (reference value: 11322 a.u.); assay type: functional
# [24] = test system: Macrophage; test: Antiinflammatory activity in human primary macrophages assessed as effect on LPS-induced BMP6 gene expression at 30 uM measured after 2 hrs by RT-PCR array (reference value: 1526 a.u.); assay type: functional
# [25] = test system: Macrophage; test: Antiinflammatory activity in human primary macrophages assessed as effect on LPS-induced BMP8B gene expression at 30 uM measured after 2 hrs by RT-PCR array (reference value: 1117 a.u.); assay type: functional
# [26] = test system: Macrophage; test: Antiinflammatory activity in human primary macrophages assessed as effect on LPS-induced TGFB2 gene expression at 30 uM measured after 2 hrs by RT-PCR array (reference value: 7625 a.u.); assay type: functional
# [27] = test system: Macrophage; test: Antiinflammatory activity in human primary macrophages assessed as effect on LPS-induced IL15 gene expression at 30 uM measured after 2 hrs by RT-PCR array (reference value: 62425 a.u.); assay type: functional
# [28] = test system: Macrophage; test: Antiinflammatory activity in human primary macrophages assessed as effect on LPS-induced IFNG gene expression at 30 uM measured after 2 hrs by RT-PCR array (reference value: 240 a.u.); assay type: functional
# [29] = test system: Macrophage; test: Antiinflammatory activity in human primary macrophages assessed as effect on LPS-induced IL1A gene expression at 30 uM measured after 2 hrs by RT-PCR array (reference value: 1292761 a.u.); assay type: functional
# [30] = test system: Macrophage; test: Antiinflammatory activity in human primary macrophages assessed as effect on LPS-induced GDF3 gene expression at 30 uM measured after 2 hrs by RT-PCR array (reference value: 134 a.u.); assay type: functional
# [31] = test system: Macrophage; test: Antiinflammatory activity in human primary macrophages assessed as effect on LPS-induced FASLG gene expression at 30 uM measured after 2 hrs by RT-PCR array (reference value: 73 a.u.); assay type: functional
# [32] = test system: Macrophage; test: Antiinflammatory activity in human primary macrophages assessed as effect on LPS-induced IL1F8 gene expression at 30 uM measured after 2 hrs by RT-PCR array (reference value: 1429 a.u.); assay type: functional
# [33] = test system: Macrophage; test: Antiinflammatory activity in human primary macrophages assessed as effect on LPS-induced IL12B gene expression at 30 uM measured after 2 hrs by RT-PCR array (reference value: 17908 a.u.); assay type: functional
Compound,XC50 [1],XC50 [2],XC50 [3],XC50 [4],XC50 [5],XC50 [6],XC50 [7],XC50 [8],XC50 [9],XC50 [10],XC50 [11],XC50 [12],XC50 [13],XC50 [14],XC50 [15],XC50 [16],Activity [17],Activity [18],Activity [19],Activity [20],also measured
O=C(O)CCNc1cc(N2CCc3ccccc3CC2)nc(-c2cccnc2)n1,16 µM,50 µM,> 40 µM,> 100 µM,> 100 µM,63 µM,> 25 µM,> 32 µM,50 µM,> 300 µM,> 50 µM,> 40 µM,> 100 µM,4.9 µM,> 300 µM,> 100 µM,,,,,
O=C(O)CCNc1cc(N2CCc3ccccc3CC2)nc(-c2ccccn2)n1,50 µM,50 µM,> 40 µM,> 100 µM,50 µM,50 µM,> 25 µM,> 32 µM,79 µM,> 300 µM,> 50 µM,> 40 µM,> 100 µM,> 50 µM,> 300 µM,> 100 µM,,,,,
CCOC(=O)CCNc1cc(N2CCc3ccccc3CC2)nc(-c2ccccn2)n1,,,,,,,,,,,,,,,,,1352294 a.u.,197 a.u.,43866 a.u.,304 a.u.,Activity [21]: 17105 a.u.; Activity [22]: 18715 a.u.; Activity [23]: 708 a.u.; Activity [24]: 293 a.u.; Activity [25]: 820 a.u.; Activity [26]: 3422 a.u.; Activity [27]: 4562 a.u.; Activity [28]: 298 a.u.; Activity [29]: 170309 a.u.; Activity [30]: 59 a.u.; Activity [31]: 19 a.u.; Activity [32]: 1157 a.u.; Activity [33]: 3068 a.u.
CCOC(=O)CCNc1cc(N2CCc3ccccc3CC2)nc(-c2cccnc2)n1,,,,,,,,,,,,,,,,,1352294 a.u.,45 a.u.,39565 a.u.,5021 a.u.,Activity [21]: 115933 a.u.; Activity [22]: 22792 a.u.; Activity [23]: 9224 a.u.; Activity [24]: 1399 a.u.; Activity [25]: 1235 a.u.; Activity [26]: 4816 a.u.; Activity [27]: 40115 a.u.; Activity [28]: 60 a.u.; Activity [29]: 815450 a.u.; Activity [30]: 151 a.u.; Activity [31]: 45 a.u.; Activity [32]: 2282 a.u.; Activity [33]: 17395 a.u.
